In article PMC11920646 (Frontiers in Pharmacology, 2025):
Values joined by “and” are separate entries in the source; they are usually repeats but may differ in a detail not shown here. Equal values may be shown once.

What was measured:
[1] = biological target: T1, human progesterone receptor (PR) (Homo sapiens, UniProt P06401); assay: Human PR radioligand binding (3H-progesterone, T47D cells); conditions: read-out: inhibition of 3H-progesterone binding; footnote: at 10 µM
T1 sequence (P06401 636-933 limits assumed): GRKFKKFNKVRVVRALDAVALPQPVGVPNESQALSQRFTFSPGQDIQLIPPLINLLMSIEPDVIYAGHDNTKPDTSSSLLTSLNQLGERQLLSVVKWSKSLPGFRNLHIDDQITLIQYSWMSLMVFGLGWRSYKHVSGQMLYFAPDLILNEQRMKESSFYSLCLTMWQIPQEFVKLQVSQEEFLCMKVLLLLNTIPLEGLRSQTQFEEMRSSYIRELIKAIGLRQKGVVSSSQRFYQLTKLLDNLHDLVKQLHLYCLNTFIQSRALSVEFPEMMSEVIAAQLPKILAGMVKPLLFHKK
Experimental: (§1) Scintillation counting of bound radioligand was conducted after 6 and 20 h of incubation (at 4°C), respectively. […] Scintillation counting of bound radioligand was conducted after 20 h of incubation at 4°C.
(§2) The same statistical methods were used for the MR binding assays, but using MathIQ™ software (ID Business Solutions Ltd., Woking, United Kingdom).
(§3) Percent inhibition of control specific binding was calculated as follows: […]
(§4) The half-maximal inhibitory concentration (IC50; i.e., the concentration causing a half-maximal inhibition of control specific binding) and Hill coefficients (nH) were determined by non-linear regression analysis of the competition curves generated with mean replicate values using the following Hill equation curve fitting: Y=D+ A-D1+ C/C50nH , where Y = specific binding, A = left asymptote of the curve, D = right asymptote of the curve, C = compound concentration, C50 = IC50, and nH = slope factor.
(§5) The inhibition constants (Ki) were calculated using the Cheng Prusoff equation:
(§6) where L = concentration of radioligand employed in the assay, and KD = affinity of the radioligand for the receptor (a Scatchard plot was used to determine the KD) (Cheng and Prusoff, 1973).

human MR = biological target: T2, human MR (Homo sapiens, UniProt P08235); assay: Human MR radioligand binding (3H-aldosterone, recombinant MR from Sf9 cells); conditions: 3H-aldosterone 0.4 nM, 20 h, 4°C
T2 construct: host or cells: insect Sf9 cells
T2 sequence (P08235 1-984): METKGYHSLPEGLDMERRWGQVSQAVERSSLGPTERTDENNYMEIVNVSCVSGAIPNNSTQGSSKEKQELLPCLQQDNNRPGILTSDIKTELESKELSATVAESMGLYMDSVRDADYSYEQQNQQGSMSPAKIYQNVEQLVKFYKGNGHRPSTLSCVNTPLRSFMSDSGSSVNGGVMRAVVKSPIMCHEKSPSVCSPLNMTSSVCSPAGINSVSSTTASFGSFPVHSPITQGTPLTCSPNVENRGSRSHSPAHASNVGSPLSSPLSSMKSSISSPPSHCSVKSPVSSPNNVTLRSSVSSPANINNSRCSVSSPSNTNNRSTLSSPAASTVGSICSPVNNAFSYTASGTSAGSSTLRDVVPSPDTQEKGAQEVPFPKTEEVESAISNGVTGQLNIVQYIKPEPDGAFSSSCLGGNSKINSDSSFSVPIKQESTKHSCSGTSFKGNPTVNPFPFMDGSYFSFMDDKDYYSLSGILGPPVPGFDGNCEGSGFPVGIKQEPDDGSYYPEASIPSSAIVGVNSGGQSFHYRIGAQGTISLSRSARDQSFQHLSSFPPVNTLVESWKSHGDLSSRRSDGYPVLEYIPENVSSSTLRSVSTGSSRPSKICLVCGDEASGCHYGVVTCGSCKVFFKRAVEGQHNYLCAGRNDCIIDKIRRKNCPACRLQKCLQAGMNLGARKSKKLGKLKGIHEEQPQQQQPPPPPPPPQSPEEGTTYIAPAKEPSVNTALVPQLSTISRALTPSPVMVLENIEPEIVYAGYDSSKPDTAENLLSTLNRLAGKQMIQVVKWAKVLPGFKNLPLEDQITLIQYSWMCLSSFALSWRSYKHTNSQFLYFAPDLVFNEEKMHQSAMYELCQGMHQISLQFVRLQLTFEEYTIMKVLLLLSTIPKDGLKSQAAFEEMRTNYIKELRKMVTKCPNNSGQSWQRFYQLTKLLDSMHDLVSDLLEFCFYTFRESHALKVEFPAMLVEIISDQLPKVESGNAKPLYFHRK
Experimental: as §1, §2, §3, §4, §5, §6

[2] = system: LPS-induced TNF-α release in rat whole blood; assay: Inhibition of LPS-induced TNF-α release in rat whole blood; format: cell-based; conditions: 18 h
[3] = system: TNF-α–induced IL-6 release from primary fibroblast-like synoviocytes; assay: Inhibition of TNF-α–induced IL-6 release by primary FLS from rheumatoid arthritis patients; format: cell-based, human; conditions: for IL-6 concentration: replicate wells 1-3
Experimental: In this assay, conducted by BioIVT (Hertfordshire, United Kingdom), primary FLS were obtained from three donors with rheumatoid arthritis and seeded at passage 4 in FGM™-2 fibroblast growth medium (Lonza) in 96-well plates at a density of […], and incubated overnight in standard conditions. […] Negative controls were TNF-α alone and culture medium alone, and vehicle control was DMSO (0.1%). IL-6 was measured in collected supernatant using an enzyme-linked immunosorbent assay (ELISA, R&D Systems Minneapolis, MN, United States) according to the manufacturer’s instructions.
% inhibition= compound -maxmin- max ×100

[4] = system: IFN-γ release in human whole blood; set-up: method as in Hu et al., 2011; conditions: at concentrations each of 100–1000 nM ref Hu et al., 2011; cited from earlier work
[5] = humans ref Ferry et al., 1988; cited from earlier work

- inhibition at 10 µM [1]: 12.1 to 30.7%
- IC50 (human MR; read-out: Mineralocorticoid receptor IC50): 0.78 nM
- Ki (human MR; read-out: Mineralocorticoid receptor Ki): 0.26 nM
- IC50 [2]: 8.1 ± 2.1 nM
SMILES: C[C@]12C=CC(=O)C=C1CC[C@@H]1[C@@H]2[C@@H](O)C[C@@]2(C)[C@H]1CC[C@]2(O)C(=O)CO [Prednisolone]
- Inhibition of LPS-induced TNF-α release [2]: 99 ± 3%
- IL-6 concentration ([3]; Donor 1, compound −5 log M): 260.7 pg/mL and 224.6 pg/mL and 206.6 pg/mL
- IL-6 concentration ([3]; Donor 1, compound −6 log M): 269.7 pg/mL and 215.6 pg/mL and 206.6 pg/mL
- IL-6 concentration ([3]; Donor 1, compound −7 log M): 292.3 pg/mL and 274.3 pg/mL and 238.1 pg/mL
- IL-6 concentration ([3]; Donor 1, compound −8 log M): 616.3 pg/mL and 483.3 pg/mL and 446.8 pg/mL
- IL-6 concentration ([3]; Donor 1, compound −9 log M): 988.4 pg/mL and 736.4 pg/mL and 685.5 pg/mL
- IL-6 concentration ([3]; Donor 1, compound −10 log M): 880.6 pg/mL and 778.2 pg/mL and 796.8 pg/mL
- IL-6 concentration ([3]; Donor 1, compound −11 log M): 964.9 pg/mL and 801.4 pg/mL and 731.8 pg/mL
- IL-6 concentration ([3]; Donor 1, compound −12 log M): 946.2 pg/mL and 768.9 pg/mL and 708.6 pg/mL
- IL-6 concentration ([3]; Donor 1, compound −13 log M): 1101.6 pg/mL and 838.7 pg/mL and 755.0 pg/mL
- IL-6 concentration ([3]; Donor 1, compound −14 log M): 1106.3 pg/mL and 960.2 pg/mL and 880.6 pg/mL
- IL-6 concentration ([3]; Donor 2, compound −5 log M): 516.5 pg/mL and 385.6 pg/mL and 394.9 pg/mL
- IL-6 concentration ([3]; Donor 2, compound −6 log M): 521.2 pg/mL and 394.9 pg/mL and 381.0 pg/mL
- IL-6 concentration ([3]; Donor 2, compound −7 log M): 554.0 pg/mL and 394.9 pg/mL and 404.3 pg/mL
- IL-6 concentration ([3]; Donor 2, compound −8 log M): 848.1 pg/mL and 695.7 pg/mL and 681.5 pg/mL
- IL-6 concentration ([3]; Donor 2, compound −9 log M): 1338.8 pg/mL and 1045.5 pg/mL and 1157.3 pg/mL
- IL-6 concentration ([3]; Donor 2, compound −10 log M): 1309.2 pg/mL and 1108.6 pg/mL and 1215.9 pg/mL
- IL-6 concentration ([3]; Donor 2, compound −11 log M): 1497.4 pg/mL and 1079.5 pg/mL and 2570.2 pg/mL
- IL-6 concentration ([3]; Donor 2, compound −12 log M): 1427.8 pg/mL and 1215.9 pg/mL and 1123.2 pg/mL
- IL-6 concentration ([3]; Donor 2, compound −13 log M): 2326.4 pg/mL and 1123.2 pg/mL and 1142.7 pg/mL
- IL-6 concentration ([3]; Donor 2, compound −14 log M): 1552.3 pg/mL and 1393.1 pg/mL and 1255.1 pg/mL
- IL-6 concentration ([3]; Donor 3, compound −5 log M): 172.0 pg/mL and 199.6 pg/mL and 166.5 pg/mL
- IL-6 concentration ([3]; Donor 3, compound −6 log M): 170.2 pg/mL and 159.2 pg/mL and 179.4 pg/mL
- IL-6 concentration ([3]; Donor 3, compound −7 log M): 221.8 pg/mL and 220.0 pg/mL and 214.4 pg/mL
- IL-6 concentration ([3]; Donor 3, compound −8 log M): 621.9 pg/mL and 428.5 pg/mL and 386.6 pg/mL
- IL-6 concentration ([3]; Donor 3, compound −9 log M): 645.5 pg/mL and 847.5 pg/mL and 637.6 pg/mL
- IL-6 concentration ([3]; Donor 3, compound −10 log M): 1022.6 pg/mL and 1127.9 pg/mL and 983.0 pg/mL
- IL-6 concentration ([3]; Donor 3, compound −11 log M): 774.8 pg/mL and 813.1 pg/mL and 796.9 pg/mL
- IL-6 concentration ([3]; Donor 3, compound −12 log M): 904.7 pg/mL and 837.4 pg/mL and 859.7 pg/mL
- IL-6 concentration ([3]; Donor 3, compound −13 log M): 956.1 pg/mL and 937.5 pg/mL and 1151.3 pg/mL
- IL-6 concentration ([3]; Donor 3, compound −14 log M): 888.3 pg/mL and 831.3 pg/mL and 947.8 pg/mL
- IC50 ([3]; Homo sapiens, primary FLS from three RA donors, 24 h): 5.6 ± 2.3 nM
- Inhibition (efficacy) of TNF-α–induced IL-6 release ([3]; primary FLS from three RA donors, 24 h): 79.8 ± 7.6%
- inhibition of IFN-γ release in human whole blood [4]: 85–100%
- t½ [5]: ~2.5 h
